# Laboratory results taken from patent US20120065187A1 (ALCON RESEARCH, LTD, priority 2008, published 2012).
# pEC50: −log10 of the molar value.
# Assays:
# human H4 = biological target: T1, human H4 (Homo sapiens, UniProt Q9H3N8); test: In vitro histamine receptor cell-based assay (aequorin bioluminescence), H4 antagonism; conditions: CHO-K1 cells expressing human H4, aequorin and Gα16; histamine at EC80; read-out: H4 Antagonist EC50
# T1 construct: host or cells: CHO-K1
# Summary of the method: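 CHO-K1 cells stably expressing human H4, Gα16 and mitochondrial aequorin, loaded with 5 μM coelenterazine-h, preincubated 15 min at room temperature with compound, then challenged with histamine at EC80.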
# human H1 = biological target: T2, human H1 (Homo sapiens, UniProt P35367); test: In vitro histamine receptor cell-based assay (aequorin bioluminescence), H1 antagonism; conditions: CHO-K1 cells expressing human H1 and aequorin; histamine at EC80; read-out: H1 Antagonist EC50
# T2 construct: host or cells: CHO-K1
# T2 sequence (P35367 whole entry): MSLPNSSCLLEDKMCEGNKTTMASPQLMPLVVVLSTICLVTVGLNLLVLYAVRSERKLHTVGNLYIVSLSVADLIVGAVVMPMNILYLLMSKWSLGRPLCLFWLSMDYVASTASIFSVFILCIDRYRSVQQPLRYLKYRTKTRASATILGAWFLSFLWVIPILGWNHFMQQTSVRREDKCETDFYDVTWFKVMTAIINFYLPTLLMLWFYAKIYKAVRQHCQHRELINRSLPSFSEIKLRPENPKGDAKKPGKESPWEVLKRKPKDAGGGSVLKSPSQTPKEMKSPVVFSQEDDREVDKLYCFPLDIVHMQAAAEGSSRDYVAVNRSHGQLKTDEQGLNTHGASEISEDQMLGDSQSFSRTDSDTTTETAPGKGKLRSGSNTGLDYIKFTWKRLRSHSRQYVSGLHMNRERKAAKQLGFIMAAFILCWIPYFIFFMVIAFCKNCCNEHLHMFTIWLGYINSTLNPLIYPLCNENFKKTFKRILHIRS
# Summary of the method: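 Stable CHO-K1 lines expressing human H1 or H4 (H4 with Gα16) plus mitochondrial aequorin, loaded 4 h with 5 μM coelenterazine-h at ~21 °C. Compounds preincubated 15 min, then histamine at EC80 added; bioluminescence decrease (AUC or max–min) expressed as % of positive control (diphenhydramine for H1, JNJ7777120 for H4, 10 μM).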
# [1] = tested on: Hartley VAF outbred guinea pigs; test: Allergic conjunctivitis in passively sensitized guinea pigs (conjunctival EPO activity); type: in vivo; set-up: key: +: a 0.01% bid dose was statistically equivalent to dexamethasone with respect to reduction of EPO activity; −: the compound was statistically inferior to dexamethasone and not different than vehicle; conditions: reduction of conjunctival EPO activity vs dexamethasone; for QD activity: ≦0.1% qd topical, 1 hour prior to ovalbumin challenge; for BID activity: 0.01% bid topical, 1 hour prior to and 8 hours after ovalbumin challenge
# Method: Male Hartley VAF outbred guinea pigs were passively sensitized to ovalbumin by a single OD subconjunctival injection of undiluted guinea pig anti-ovalbumin antiserum 24 hours before OD topical challenge with 500 μg ovalbumin in saline. Control animals were injected with saline only and challenged with ovalbumin. To determine acute phase drug efficacy, 30 min after challenge animals were clinically scored by a masked observer for severity of signs of conjunctivitis based on a standard scale. Test compounds were administered topically 1 hour prior to challenge (QD protocol), or 1 hour prior to challenge and again 8 hours after challenge (BID protocol). Twenty-four hours after challenge, animals were euthanized and conjunctivae were harvested for determination of tissue eosinophil peroxidase (EPO) concentration as a marker of allergic inflammation. Homogenates of freshly collected tissues were prepared by shaking the tissues in 2 mL round-bottom tubes containing 0.5 mL of homogenization buffer (50 mM Tris HCl, pH 8.0, 6 mM KBr) and one 5-mm stainless steel bead on a Qiagen TissueLyser at 30 Hz for 5 min. Homogenates were frozen and thawed once, then centrifuged at 10,000 rpm for 5 min. EPO activity in supernatants was measured by reacting diluted homogenates with a solution of 6 mM o-phenylenediamine substrate and 8.8 mM H2O2 in homogenization buffer for 3 min. The reaction was stopped with 4M H2SO4 and absorbances were measured at […] on a spectrophotometric plate reader. Total EPO in samples was calculated from a standard curve of recombinant human EPO in each assay. EPO activity was normalized to total protein concentration (Pierce BCA assay) in supernatants. Background EPO activity was determined from the unsensitized, antigen-challenged control group. Percent inhibition was calculated from the sensitized, antigen-challenged, vehicle-treated control group in each experiment. Ovalbumin-injected animals dosed topically with 0.1% w/v dexamethasone (dex) served as positive control. Groups were compared by ANOVA with Dunnett's or Tukey's post-hoc tests where appropriate with significance assigned at the 95% confidence level.
# The table below summarizes the results.
pEC50 (human H4),pEC50 (human H1),Compound,QD activity [1],BID activity [1]
> 5.00,< 5.00,"Cc1nc2c3cc(C(F)(F)F)ccc3nc(N3CCNCC3)n2n1 [Example 104, 2-Methyl-5-(piperazin-1-yl)-9-(trifluoromethyl)-[1,2,4]triazolo[1,5-c]quinazoline]",−,
> 5.00,< 5.00,"Cc1nc2c3ccc(C(F)(F)F)cc3nc(N3CCN(C)CC3)n2n1 [Example 109, 2-Methyl-5-(4-methylpiperazin-1-yl)-8-(trifluoromethyl)-[1,2,4]triazolo[1,5-c]quinazoline]",,−
> 5.00,< 5.00,"Cc1nc2c3cc(C(F)(F)F)c(F)cc3nc(N3CCN(C)CC3)n2n1.Cl [Example 124, 8-fluoro-2-methyl-5-(4-methylpiperazin-1-yl)-9-(trifluoromethyl)-[1,2,4]triazolo[1,5-c]quinazoline hydrochloride]",−,
> 5.00,< 5.00,"Cc1nc2c3cc(F)c(C(F)(F)F)cc3nc(N3CCN(C)CC3)n2n1.Cl [Example 129, 9-fluoro-2-methyl-5-(4-methylpiperazin-1-yl)-8-(trifluoromethyl)-[1,2,4]triazolo[1,5-c]quinazoline hydrochloride]",−,
> 5.00,< 5.00,"Cc1nc2c3cc(OC(F)(F)F)ccc3nc(N3CCN(C)CC3)n2n1.Cl [Example 133, 2-methyl-5-(4-methylpiperazin-1-yl)-9-(trifluoromethoxy)-[1,2,4]triazolo[1,5-c]quinazoline hydrochloride]",−,
> 5.00,< 5.00,"Cc1nc2c3cc(Br)ccc3nc(N3CCNCC3)n2n1 [Example 136, 9-bromo-2-methyl-5-(piperazin-1-yl)-[1,2,4]triazolo[1,5-c]quinazoline]",−,

# Second part, the compound before the results:
Compound,pEC50 (human H4),pEC50 (human H1),QD activity [1],BID activity [1]
"Cc1nc2c3cc(C(F)(F)F)c(F)cc3nc(N3CCNCC3)n2n1.Cl [Example 125, 8-fluoro-2-methyl-5-(piperazin-1-yl)-9-(trifluoromethyl)-[1,2,4]triazolo[1,5-c]quinazoline hydrochloride]",> 5.00,< 5.00,−,
"Cc1nc2c(N3CCN(C)CC3)nc3ccc(Cl)cc3c2o1 [Example 143, 8-chloro-2-methyl-4-(4-methylpiperazin-1-yl)oxazolo[4,5-c]quinoline]",> 5.00,> 5.00,−,+
"Cc1nc2c(N3CCN(C)CC3)nc3cc(F)c(F)cc3c2o1 [Example 145, 7,8-difluoro-2-methyl-4-(4-methylpiperazin-1-yl)oxazolo[4,5-c]quinoline]",> 5.00,< 5.00,−,
"CN1CCN(c2nc3ccc(Cl)cc3c3cn(C)nc23)CC1 [Example 150, 8-Chloro-2-methyl-4-(4-methylpiperazin-1-yl)-2H-pyrazolo[3,4-c]quinoline]",> 5.00,< 5.00,,−
"Clc1ccc2nc(N3CCNCC3)c3n[nH]cc3c2c1 [Example 153, 8-Chloro-4-(piperazin-1-yl)-2H-pyrazolo[3,4-c]quinoline]",> 5.00,> 5.00,,−
"CN1CCN(c2nc3ccc(Cl)cc3c3[nH]cnc23)CC1 [Example 160, 8-Chloro-4-(4-methylpiperazin-1-yl)-1H-imidazo[4,5-c]quinoline]",> 5.00,< 5.00,,−
"Clc1ccc2nc(N3CCNCC3)c3nc[nH]c3c2c1 [Example 161, 8-Chloro-4-(piperazin-1-yl)-1H-imidazo[4,5-c]quinoline]",> 5.00,> 5.00,,+
